Reference: patent US5276049A, “Cyclic urea derivatives, pharmaceutical compositions containing these compounds and methods of using the same” (Dr. Karl Thomae GmbH, priority 1991, dated 1994)
pEC50, pIC50: −log10 of the molar value. Counter-ions that a name gives are not always drawn.

Experiments:
Human Thrombocytes = experiment: Fibrinogen Binding to Human Thrombocytes (I125-fibrinogen, gel-filtered platelets); conditions: inhibition of I125-fibrinogen binding to gel-filtered human platelets, ADP, 20 minutes, ambient temperature; read-out: Fibrinogen Binding test IC50
Outline: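 Gel-filtered human platelets (from citrated PRP, pH 7.4 Tris/citrate/glucose buffer) incubated 20 min at ambient temperature with test compound, CaCl2, ADP and I125-fibrinogen; non-specific binding with 3 mg/ml cold fibrinogen. Platelets spun through silicone oil, bound fibrinogen gamma-counted; IC50 from a concentration series.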

[1] = tested on: thrombocyte aggregation in platelet-rich plasma; experiment: Antithrombotic effect: collagen-induced thrombocyte aggregation in platelet-rich plasma (Born and Cross); format: cell-based; conditions: human platelet-rich plasma, 10 minutes preincubation at 37° C., read-out: Inhibition of platelet aggregation EC50
Outline: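 Human platelet-rich plasma (citrated 1:10, 3.14%) incubated with compound 10 min at 37 °C, then aggregation triggered by minimal collagen giving irreversible response. Optical density change tracked photometrically (Born and Cross); EC50 determined graphically as 50% inhibition of optical density change.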

mice = conditions: mouse, in vivo, 30 mg/kg
[2] = tested on: collagen-induced thrombocyte aggregation; experiment: Collagen-induced thrombocyte aggregation ex vivo after oral administration; format: in vivo; conditions: Rhesus monkeys, 1 mg/kg

SMILES | pIC50 (Human Thrombocytes) | pEC50 [1] | sedation (mice) | death of animals after intravenous administration (mice; iv) | duration of inhibition of collagen-induced thrombocyte aggregation ex vivo [2]
N=C(N)c1ccc(N2CCN(c3ccc(CCC(=O)O)cc3)S2(=O)=O)cc1 [1(66), 2-(4-amidino-phenyl)-5-[4-(2-carboxy-ethyl)-phenyl]-3,4-dihydro-2H,5H-1,2,5-thiadiazole-1,1-dioxide] | 8.04 | 7.30 | one animal was sedated |  | 
Cc1nn(-c2ccc(C(=N)N)cc2)c(=O)n1-c1ccc(CCC(=O)O)cc1 [1(139), 2-(4-amidino-phenyl)-4-[4-(2-carboxy-ethyl)-phenyl]-5-methyl-4H-1,2,4-triazol-3-one] | 8.17 | 7.52 | one animal was sedated |  | 
Cc1cn(-c2ccc(C(=N)N)cc2)c(=O)n1-c1ccc(CCC(=O)O)cc1 [Example 1(138), 1-(4-amidino-phenyl)-3-[4-(2-carboxy-ethyl)-phenyl]-4-methyl-3H-imidazol-2-one] | 7.68 | 7.40 |  | did not lead to the death of any of the three animals tested | 
COC(=O)NC(=N)c1ccc(-n2nc(C)n(-c3ccc(CCC(=O)OCC(C)C)cc3)c2=O)cc1 [Example 5(18), 4-[4-(2-isobutyloxycarbonyl-ethyl)-phenyl]-2-(4-methoxycarbonylamidino-phenyl)-5-methyl-4H-1,2,4-triazol-3-one] | < 5.00 | 5.09 |  |  | up to 8 hours
CC(=O)N(CCN1CCN(c2ccc(C(=N)N)cc2)C1=O)CC(=O)O [Example 30, 1-[2-(N-Acetyl-N-carboxymethyl-amino)-ethyl]-3-(4-amidino-phenyl)-imidazolidin-2-one] | 5.36 | 5.08 |  |  | 
COC(=O)CCc1ccc(N2CCN(c3ccc(C(C)N)cc3)C2=O)cc1 (stereo not shown) [Example 31, 1-[4-(1-Amino-ethyl)-phenyl]-3-[4-(2-methoxycarbonyl-ethyl)-phenyl]-imidazolidin-2-one hydrochloride] | 6.60 | 6.30 |  |  | 
